Each structure is given as a SMILES string. In brackets after ≈: the same amount, converted by molar mass. Where two headings read alike, the source gives them in different places.

Among the data in patent US4968698A, “Nitrogen containing heterocyclic compounds” (Burroughs Wellcome Co., priority 1984, dated 1990) are IC50 and MIC values, retold here.

One assay concerns Trichomonas vaginalis. Briefly: In vitro activity against T. vaginalis (IC50 determination). The assay is classed as cell-based. Conditions: 37° C., aerobic, Modified Diamonds Medium. How it is done:
The antiprotozoal e.g. antitrichomonal, activity of the compounds of the present invention may be assessed by conventional methods, for example by determining the minimum inhibition concentration (m.i.c.) or 50% inhibition level (IC50).
Modified Diamonds Medium (MDM) was prepared according to the method described in J. Kulda et al., American Journal of Obstetrics and Gynaecology 1970, 108, 908-18 and 4 cm^3 of the medium was pipetted into each of a series of tubes (usually 16 tubes). To each tube was added 0.5 cm^3 of varying concentration of a solution (usually in ethanol+MDM) or suspension of the test drug. Duplicate tubes for each drug concentration were prepared.
Finally, to each tube was added T. vaginalis (0.5 cm^3) at a concentration of 1×10^5 cm^-3,) to give a final trichomonad concentration of 1×10^4 cm^-3 in each tube. The tubes were then incubated (aerobically) at 37° C. and the resulting trichomonad numbers were counted at 24 and 48 hours using a haemacytometer.
This information was then used to determine the 50% inhibition concentration (IC50).

For another assay, the system named is Candida albicans. Briefly: In vitro activity against Candida albicans (minimum inhibition concentration). The assay is classed as cell-based. The following applies: Yeast Nitrogen Base (YNB) broth; salt form given per compound. As for the experimental part: The antifungal activity of the compounds of the present invention may be evaluated by determining the minimum fungistatic (inhibition) concentration (m.i.c.). This test is usually performed by preparing a series of plates or tubes containing a suitable nutrient medium, each plate or tube also containing a different concentration of the test compound and then inoculating the medium with the fungal species. After an incubation period the plates are examined visually for the presence or absence of fungal growth. The m.i.c. is the minimum concentration required to prevent fungal growth.
Minimum Inhibition Concentrations (MICs) of compounds of the present invention vs. C. albicans were determined.
The solution was filter sterilised with a 0.45 μm membrane filter unit and was then further diluted with sterile distilled water (SDW)-YNB solution: SDW (1:5).

[1] abbreviates: 24 hr, 1×10^4 trichomonads cm^-3, read-out: IC50 24 hr.
[2] abbreviates: 48 hr, 1×10^4 trichomonads cm^-3, read-out: IC50 48 hr.

With `C=CCCOc1ccc2c(c1)CCN=C2C=Cc1ccc(Cl)cc1` [Example 45, 6-(But-3-enyloxy)-1-(4-chlorostyryl)-3,4-dihydroisoquinoline], the half-inhibitory concentration (IC50) (as a rule, the concentration that inhibits the measured activity by half) in the assay on Trichomonas vaginalis (setting [1]) is 2.2 µg/mL (≈ 6.51 µM); with Trichomonas vaginalis (setting [2]) it was 2.8 µg/mL (≈ 8.29 µM). For the same compound, the minimal inhibitory concentration (MIC) – broadly, the least concentration at which growth counts as inhibited – with Candida albicans was determined as 6.2 µg/mL.

`N#Cc1ccc(C=CC2=NCCc3cc(OCc4ccccc4)ccc32)cc1` [Example 52, 6-Benzyloxy-1-(4-cyanostyryl)-3,4-dihydroisoquinoline]: the IC50 in the assay on Trichomonas vaginalis (setting [1]) turned out to be 2.9 µg/mL (≈ 7.96 µM); in the assay on Trichomonas vaginalis (setting [2]), 3.2 µg/mL (≈ 8.78 µM). In the assay on Candida albicans, the minimal inhibitory concentration (MIC) was determined as 6.2 µg/mL.

Turning to `C/C=C/C=C/C1=NCCc2cc(OCCCC)ccc21` [Example 128, (E,E)-6-Butyloxy-3,4-dihydro-1-(penta-1,3-dienyl)isoquinoline], the values for the IC50 with Trichomonas vaginalis (setting [1]) and in the assay with Trichomonas vaginalis (setting [2]) were 1.5 µg/mL (≈ 5.57 µM) and 1.6 µg/mL (≈ 5.94 µM), respectively. Moreover, the MIC in the assay with Candida albicans came to 25 µg/mL.
